Columns and labels:
[1] = system: salmon testes DNA; assay: Photoadduct formation with DNA under UVA irradiation (TLC analysis); details: 15 J/cm2 UVA
Description: The total energy that struck the sample was monitored by means of a radiometer (Variocontrol, Waldmann, Villingen-Schwenningen, Germany), equipped with a Variocontrol UV Sensor (Waldmann). The radiant power emitted by the UVA lamp was about […]. The samples were maintained at room temperature during irradiation.
The test compounds were dissolved in ethanol (2 mg/mL) and salmon testes DNA (Sigma-Aldrich) was dissolved in 10 mM NaCl and 1 mM EDTA solution (1.5 × 10^−3 M). Each test solution (250 μL) was added dropwise to the DNA solution (5 mL). The mixture was irradiated with 15 J/cm2 UVA light in a glass dish for 1 h. After irradiation, the DNA was precipitated with 1 M NaCl and two volumes of cold ethanol; the precipitated DNA was collected, washed with 80% ethanol, dried, and then dissolved in water. To obtain hydrolysis, the final solution was acidified with 1 M HCl, heated at 100 °C for 1 h, neutralized with NaOH and extracted three times with chloroform. Then, all of the organic layers were collected, dried under a high vacuum, and dissolved in ethanol. The hydrolyzed mixtures were separated by thin layer chromatography (TLC; F254 plates, 0.25 mm, Merck, Darmstadt, Germany) eluting with EtOAc/EtOH (9:1). The plates were analyzed with a Mineral Light Lamp VL-4LC VILBERT-LOURMAT (Vilber, Marne-la-Vallée, France).

[2] = system: Salmonella typhimurium 1535; assay: Ames mutagenicity assay, plate incorporation, TA1535; type: cell-based
Description: (§1) The mutagenicity assay was performed for the test compounds following the plate incorporation method with the histidine-requiring Salmonella typhimurium mutant TA97A, TA98, TA100, and TA1535 strains purchased by Molecular Toxicology Inc. (Boone, NC, USA; moltox.com). All strains (100 µL per plate of fresh overnight cultures) were checked with and without the addition of 0.5 mL of a 5% S9 exogenous metabolic activator (S9 mix). The lyophilized post-mitochondrial supernatant S9 mix (Aroclor 1254-induced, Sprague–Dawley male rat liver in 0.154 M KCl solution), commonly used for the activation of pro-mutagens in mutagenic metabolites (Molecular Toxicology, Inc., Boone, NC, USA), was stored at −80 °C before use. The concentration tested for all the samples were 5, 10, 20, 50, and 100 µL/plate from a stock solution of 500 nM. A fully grown culture of the appropriate tester strain (0.1 mL) was added to 2 mL molten top agar (0.6% agar, 0.6% NaCl, 0.5 mM L-histidine/biotin solution) at 46 °C, together with 0.1 mL of each sample solution at different concentrations, and 0.5 mL S9 mix for assays with metabolic activation. The ingredients were thoroughly mixed and poured onto minimal glucose agar plates (1.5% agar in 2% Vogel–Bonner medium E with 5% glucose solution). DMSO was used as negative a control (100 µL/plate). Positive controls were prepared as follows: 2-aminoanthracene (2 µg/plate) and 2-nitrofluorene (2 µg/plate) for TA 97A, TA98 and TA1535 with and without metabolic activator (S9 mix), respectively; 2-aminoanthracene (2 µg/plate) and sodium azide (2 µg/plate) for TA100, with and without metabolic activator (S9 mix), respectively. The plates were incubated at 37 °C for 72 h and then his+ revertants were checked and counted using a Colony Counter 560 Suntex (Antibioticos, Italy). A sample was considered mutagenic when the observed number of colonies was at least twofold over the spontaneous level of revertants. All determinations were made in triplicate. Statistical analysis: relative standard deviations were calculated using the statistical software STATISTICA 6.0 (StatSoft, Italia srl, Vigonza, Italy). […]
(§2) Salmonella typhimurium TA97A Salmonella typhimurium TA98 Salmonella typhimurium TA100 Salmonella typhimurium 1535 […]
(§3) average SD t/c average SD t/c average SD t/c average SD t/c average SD t/c average SD t/c average SD t/c average SD t/c […]
(§4) *Significant values according to Ames computation (Maron & Ames, 1983); DMSO, C+: negative and positive controls respectively; SD: Standard Deviation; t/c: number of revertant colonies in treated plates/number of revertant colonies in […]

[3] = system: Salmonella typhimurium TA97A; assay: Ames mutagenicity assay, plate incorporation, TA97A; type: cell-based
Description: as §1, §2, §3, §4

[4] = system: Salmonella typhimurium TA98; assay: Ames mutagenicity assay, plate incorporation, TA98; type: cell-based
Description: as §1, §2, §3, §4

[5] = 1535, +S9, 5 µL/plate of 500 nM stock
[6] = 1535, +S9, 10 µL/plate of 500 nM stock
[7] = 1535, +S9, 20 µL/plate of 500 nM stock
[8] = 1535, +S9, 50 µL/plate of 500 nM stock
[9] = 1535, +S9, 100 µL/plate of 500 nM stock
[10] = 1535, -S9, 5 µL/plate of 500 nM stock
[11] = 1535, -S9, 10 µL/plate of 500 nM stock
[12] = 1535, -S9, 20 µL/plate of 500 nM stock
[13] = 1535, -S9, 50 µL/plate of 500 nM stock
[14] = 1535, -S9, 100 µL/plate of 500 nM stock
[15] = +S9, 5 µL/plate of 500 nM stock
[16] = +S9, 10 µL/plate of 500 nM stock
[17] = +S9, 20 µL/plate of 500 nM stock
[18] = +S9, 50 µL/plate of 500 nM stock
[19] = +S9, 100 µL/plate of 500 nM stock
[20] = -S9, 5 µL/plate of 500 nM stock
[21] = -S9, 10 µL/plate of 500 nM stock
[22] = -S9, 20 µL/plate of 500 nM stock
[23] = -S9, 50 µL/plate of 500 nM stock
[24] = -S9, 100 µL/plate of 500 nM stock
[25] = TA98, +S9, 5 µL/plate of 500 nM stock
[26] = TA98, +S9, 10 µL/plate of 500 nM stock
[27] = TA98, +S9, 20 µL/plate of 500 nM stock
[28] = TA98, +S9, 50 µL/plate of 500 nM stock
[29] = TA98, +S9, 100 µL/plate of 500 nM stock
[30] = TA98, -S9, 5 µL/plate of 500 nM stock
[31] = TA98, -S9, 10 µL/plate of 500 nM stock
[32] = TA98, -S9, 20 µL/plate of 500 nM stock
[33] = TA98, -S9, 50 µL/plate of 500 nM stock
[34] = TA98, -S9, 100 µL/plate of 500 nM stock

## Cc1cc2c(-c3ccccc3)cc(=O)oc2c2c(C)coc12 [4-PhDMA]
[1]
  photoadduct formation with DNA upon UVA irradiation: only the unchanged bands
[2]; [5]
  revertant colonies, average: 10.5
  t/c (revertant colonies treated/untreated plates): 1.0
[2]; [6]
  revertant colonies, average: 13.5
  t/c (revertant colonies treated/untreated plates): 1.3
[2]; [7]
  revertant colonies, average: 11.0
  t/c (revertant colonies treated/untreated plates): 1.0
[2]; [8]
  revertant colonies, average: 10.5
  t/c (revertant colonies treated/untreated plates): 1.0
[2]; [9]
  revertant colonies, average: 11.0
  t/c (revertant colonies treated/untreated plates): 1.0
[2]; [10]
  revertant colonies, average: 15.0
  t/c (revertant colonies treated/untreated plates): 1.4
[2]; [11]
  revertant colonies, average: 13.0
  t/c (revertant colonies treated/untreated plates): 1.2
[2]; [12]
  revertant colonies, average: 5.5
  t/c (revertant colonies treated/untreated plates): 0.5
[2]; [13]
  revertant colonies, average: 10.0
  t/c (revertant colonies treated/untreated plates): 0.9
[2]; [14]
  revertant colonies, average: 7.0
  t/c (revertant colonies treated/untreated plates): 0.6
[3]; [15]
  revertant colonies, average: 87.0
  t/c (revertant colonies treated/untreated plates): 0.8
[3]; [16]
  revertant colonies, average: 117.0
  t/c (revertant colonies treated/untreated plates): 1.1
[3]; [17]
  revertant colonies, average: 98.0
  t/c (revertant colonies treated/untreated plates): 0.9
[3]; [18]
  revertant colonies, average: 94.0
  t/c (revertant colonies treated/untreated plates): 0.9
[3]; [19]
  revertant colonies, average: 109.5
  t/c (revertant colonies treated/untreated plates): 1.0
[3]; [20]
  revertant colonies, average: 79.5
  t/c (revertant colonies treated/untreated plates): 1.0
[3]; [21]
  revertant colonies, average: 82.5
  t/c (revertant colonies treated/untreated plates): 1.1
[3]; [22]
  revertant colonies, average: 82.0
  t/c (revertant colonies treated/untreated plates): 1.1
[3]; [23]
  revertant colonies, average: 82.5
  t/c (revertant colonies treated/untreated plates): 1.1
[3]; [24]
  revertant colonies, average: 82.5
  t/c (revertant colonies treated/untreated plates): 1.1
[4]; [25]
  revertant colonies, average: 47.0
  t/c (revertant colonies treated/untreated plates): 1.0
[4]; [26]
  revertant colonies, average: 49.0
  t/c (revertant colonies treated/untreated plates): 1.1
[4]; [27]
  revertant colonies, average: 52.5
  t/c (revertant colonies treated/untreated plates): 1.1
[4]; [28]
  revertant colonies, average: 47.5
  t/c (revertant colonies treated/untreated plates): 1.0
[4]; [29]
  revertant colonies, average: 47.5
  t/c (revertant colonies treated/untreated plates): 1.0
[4]; [30]
  revertant colonies, average: 39.0
  t/c (revertant colonies treated/untreated plates): 1.0
[4]; [31]
  revertant colonies, average: 42.0
  t/c (revertant colonies treated/untreated plates): 1.1
[4]; [32]
  revertant colonies, average: 38.5
  t/c (revertant colonies treated/untreated plates): 1.0
[4]; [33]
  revertant colonies, average: 41.0
  t/c (revertant colonies treated/untreated plates): 1.1
[4]; [34]
  revertant colonies, average: 41.0
  t/c (revertant colonies treated/untreated plates): 1.1
